Source: patent publication EP0104041B1, “Enzyme inhibitors” (priority 1982, dated 1984)
Non-standard residues stand in square brackets, D forms with d. Residues, ends and D or L forms follow the SMILES beside them. Sta = CC(C)C[C@H](N)[C@@H](O)CC(=O)O

How the values were obtained:
human renin = molecular target: T1, human renin (Homo sapiens, UniProt P00797); experiment: renin inhibition, methods of the applicants' published European specification (0 045 665); type: biochemical; conditions: against human renin
T1 sequence (P00797 67-406): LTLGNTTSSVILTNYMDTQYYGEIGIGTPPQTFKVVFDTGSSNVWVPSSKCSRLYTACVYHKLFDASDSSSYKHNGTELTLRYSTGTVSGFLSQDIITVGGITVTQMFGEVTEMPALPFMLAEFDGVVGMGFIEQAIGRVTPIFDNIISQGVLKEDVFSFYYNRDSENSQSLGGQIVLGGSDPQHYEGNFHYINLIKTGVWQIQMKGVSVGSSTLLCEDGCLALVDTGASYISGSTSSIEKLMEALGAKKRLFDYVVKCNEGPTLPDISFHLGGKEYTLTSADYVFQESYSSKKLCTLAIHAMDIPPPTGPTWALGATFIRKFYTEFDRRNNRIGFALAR
Source text: (§1) This compound is the subject of Example 1 below.

baboon renin = experiment: renin inhibition, baboon renin; type: biochemical; conditions: against baboon renin; preliminary results
Source text: as §1

Compound | IC50 (human renin) [nM] | IC50 (human renin; preliminary results) [nM] | IC50 (baboon renin) [nM]
CC[C@H](C)[C@H](NC(=O)[C@@H](NC(=O)C[C@H](O)[C@H](CC(C)C)NC(=O)[C@H](Cc1c[nH]cn1)NC(=O)[C@H](Cc1ccccc1)NC(=O)[C@@H]1CCCN1C(=O)[C@@H](N)Cc1c[nH]cn1)C(C)C)C(=O)N[C@@H](Cc1c[nH]cn1)C(=O)O [Example 1] (H-HPFH[Sta]VIH-OH) | 16 |  | 
CC[C@H](C)[C@H](NC(=O)[C@@H](NC(=O)C[C@H](O)[C@H](CC(C)C)NC(=O)[C@H](Cc1c[nH]cn1)NC(=O)[C@H](Cc1ccccc1)NC(=O)[C@@H]1CCCN1C(=O)[C@H](Cc1c[nH]cn1)NC(=O)[C@@H]1CCCN1)C(C)C)C(=O)N[C@@H](Cc1c[nH]cn1)C(=O)N[C@@H](CCCCN)C(=O)O [Example H-189] (H-PHPFH[Sta]VIHK-OH) |  | 9 | 12
